The text below walks through data of US9718819B2 (Merck Sharp & Dohme Corp., priority 2012, dated 2017).

Molecules are shown by their SMILES.

This assay concerns the target HIV-1 RT wild-type enzyme (Human immunodeficiency virus type 1 group M subtype B (isolate HXB2) (HIV-1), UniProt P04585). The assay is described as follows: HIV-1 reverse transcriptase inhibitory activity (RT polymerase assay). In kind it is biochemical. The following applies: HIV-1 RT wild-type enzyme 83 pM; RNA-dependent DNA polymerase activity; read-out: IC50. The procedure, abridged: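 Enzyme and compound were preincubated 30 min at room temperature, then RNA/DNA hybrid (16.6 nM final; HCV-derived RNA, biotinylated primer) plus 2 μM dNTPs and 66.6 nM Ru-dUTP added, 90 min at 37 °C. Avidin capture and ECL counting; percent inhibition relative to DMSO (0%) and 1 μM efavirenz (100%), four-parameter IC50 fit.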

As for `N#Cc1cc(Cl)cc(Oc2c(C(F)(F)F)ncn(Cc3cc(C4CC4)c(=O)[nH]n3)c2=O)c1` [Example 66, 3-chloro-5-((1-((5-cyclopropyl-6-oxo-1,6-dihydropyridazin-3-yl)methyl)-6-oxo-4-(trifluoromethyl)-1,6-dihydropyrimidin-5-yl)oxy)benzonitrile], the concentration for half-maximal inhibition (IC50) is 7 nM.
Turning to `CS(=O)(=O)c1ccc(-c2cc(Cn3cnc(C(F)(F)F)c(Oc4cc(Cl)cc(C#N)c4)c3=O)n[nH]c2=O)cc1` [Example 67, 3-chloro-5-((1-((5-(4-(methylsulfonyl)phenyl)-6-oxo-1,6-dihydropyridazin-3-yl)methyl)-6-oxo-4-(trifluoromethyl)-1,6-dihydropyrimidin-5-yl)oxy)benzonitrile], the IC50 amounted to 12 nM.
Turning to `N#Cc1cc(Cl)cc(Oc2c(C(F)(F)F)ncn(Cc3cc(-c4ccc(C(O)C(F)F)cc4)c(=O)[nH]n3)c2=O)c1` (centres unmarked) [Example 69, 3-chloro-5-((1-((5-(4-(2,2-difluoro-1-hydroxyethyl)phenyl)-6-oxo-1,6-dihydropyridazin-3-yl)methyl)-6-oxo-4-(trifluoromethyl)-1,6-dihydropyrimidin-5-yl)oxy)benzonitrile], the half-maximal inhibitory concentration (IC50) came to 10 nM.
For the compound `CS(=O)(=O)c1cccc(-c2cc(Cn3cnc(C(F)(F)F)c(Oc4cc(Cl)cc(C#N)c4)c3=O)n[nH]c2=O)c1` [Example 70, 3-chloro-5-((1-((5-(3-(methylsulfonyl)phenyl)-6-oxo-1,6-dihydropyridazin-3-yl)methyl)-6-oxo-4-(trifluoromethyl)-1,6-dihydropyrimidin-5-yl)oxy)benzonitrile], the IC50 turned out to be 15 nM.
Regarding `N#Cc1cc(Cl)cc(Oc2c(C(F)(F)F)ncn(Cc3cc(-c4cn[nH]c4)c(=O)[nH]n3)c2=O)c1` [Example 71, 3-chloro-5-((6-oxo-1-((6-oxo-5-(1H-pyrazol-4-yl)-1,6-dihydropyridazin-3-yl)methyl)-4-(trifluoromethyl)-1,6-dihydropyrimidin-5-yl)oxy)benzonitrile], the IC50 was 5 nM.
Next, `Cn1cc(-c2cc(Cn3cnc(C(F)(F)F)c(Oc4cc(Cl)cc(C#N)c4)c3=O)n[nH]c2=O)cn1` [Example 72, 3-chloro-5-((1-((5-(1-methyl-1H-pyrazol-4-yl)-6-oxo-1,6-dihydropyridazin-3-yl)methyl)-6-oxo-4-(trifluoromethyl)-1,6-dihydropyrimidin-5-yl)oxy)benzonitrile]: 7 nM; `N#Cc1cc(Cl)cc(Oc2c(C(F)(F)F)ncn(Cc3cc(-c4cccnc4)c(=O)[nH]n3)c2=O)c1` [Example 73, 3-chloro-5-((6-oxo-1-((6-oxo-5-(pyridin-3-yl)-1,6-dihydropyridazin-3-yl)methyl)-4-(trifluoromethyl)-1,6-dihydropyrimidin-5-yl)oxy)benzonitrile]: 11 nM.
As for `COc1ccc(-c2cc(Cn3cnc(C(F)(F)F)c(Oc4cc(Cl)cc(C#N)c4)c3=O)n[nH]c2=O)cn1` [Example 74], the IC50 is 17 nM.
For the compound `N#Cc1ccc(-c2cc(Cn3cnc(C(F)(F)F)c(Oc4cc(Cl)cc(C#N)c4)c3=O)n[nH]c2=O)cc1` [Example 75, 3-chloro-5-((1-((5-(4-cyanophenyl)-6-oxo-1,6-dihydropyridazin-3-yl)methyl)-6-oxo-4-(trifluoromethyl)-1,6-dihydropyrimidin-5-yl)oxy)benzonitrile], the IC50 was found to be 20 nM.
Turning to `Cn1nccc1-c1cc(Cn2cnc(C(F)(F)F)c(Oc3cc(Cl)cc(C#N)c3)c2=O)n[nH]c1=O` [Example 76, 3-chloro-5-((1-((5-(1-methyl-1H-pyrazo1-5-yl)-6-oxo-1,6-dihydropyridazin-3-yl)methyl)-6-oxo-4-(trifluoromethyl)-1,6-dihydropyrimidin-5-yl)oxy)benzonitrile], the IC50 worked out at 99 nM.
On to `N#Cc1cc(Cl)cc(Oc2c(C(F)(F)F)ncn(Cc3cc(-c4ccc(F)nc4)c(=O)[nH]n3)c2=O)c1` [Example 78, 3-chloro-5-((1-((5-(6-fluoropyridin-3-yl)-6-oxo-1,6-dihydropyridazin-3-yl)methyl)-6-oxo-4-(trifluoromethyl)-1,6-dihydropyrimidin-5-yl)oxy)benzonitrile], for which the IC50 is 6 nM.
As for `N#Cc1cc(Cl)cc(Oc2c(C(F)(F)F)ncn(Cc3cc(-c4ccncc4)c(=O)[nH]n3)c2=O)c1` [Example 81, 3-chloro-5-((6-oxo-1-((6-oxo-5-(pyridin-4-yl)-1,6-dihydropyridazin-3-yl)methyl)-4-(trifluoromethyl)-1,6-dihydropyrimidin-5-yl)oxy)benzonitrile], the IC50 came to 9 nM.
Next, `N#Cc1cc(Cl)cc(Oc2c(C(F)(F)F)ncn(Cc3cc(-c4cncc(F)c4)c(=O)[nH]n3)c2=O)c1` [Example 82, 3-chloro-5-((1-((5-(5-fluoropyridin-3-yl)-6-oxo-1,6-dihydropyridazin-3-yl)methyl)-6-oxo-4-(trifluoromethyl)-1,6-dihydropyrimidin-5-yl)oxy)benzonitrile]: 7 nM; `Cc1ccc(-c2cc(Cn3cnc(C(F)(F)F)c(Oc4cc(Cl)cc(C#N)c4)c3=O)n[nH]c2=O)cn1` [Example 83, 3-chloro-5-((1-((5-(6-methylpyridin-3-yl)-6-oxo-1,6-dihydropyridazin-3-yl)methyl)-6-oxo-4-(trifluoromethyl)-1,6-dihydropyrimidin-5-yl)oxy)benzonitrile]: 14 nM.
Consider `N#Cc1cc(Cl)cc(Oc2c(C(F)(F)F)ncn(Cc3cc(-c4cncc(C#N)c4)c(=O)[nH]n3)c2=O)c1` [Example 84, 5-(6-((5-(3-chloro-5-cyanophenoxy)-6-oxo-4-(trifluoromethyl)pyrimidin-1(6H)-yl)methyl)-3-oxo-2,3-dihydropyridazin-4-yl)nicotinonitrile], for which the half-inhibitory concentration (IC50) is 27 nM.
In the case of `COc1cncc(-c2cc(Cn3cnc(C(F)(F)F)c(Oc4cc(Cl)cc(C#N)c4)c3=O)n[nH]c2=O)c1` [Example 85, 3-chloro-5-((1-((5-(5-methoxypyridin-3-yl)-6-oxo-1,6-dihydropyridazin-3-yl)methyl)-6-oxo-4-(trifluoromethyl)-1,6-dihydropyrimidin-5-yl)oxy)benzonitrile], the concentration for half-maximal inhibition (IC50) amounted to 14 nM.
With `N#Cc1cc(Cl)cc(Oc2c(C(F)(F)F)ncn(Cc3cc(-c4ccc(Cl)nc4)c(=O)[nH]n3)c2=O)c1` [Example 86, 3-chloro-5-((1-((5-(6-chloropyridin-3-yl)-6-oxo-1,6-dihydropyridazin-3-yl)methyl)-6-oxo-4-(trifluoromethyl)-1,6-dihydropyrimidin-5-yl)oxy)benzonitrile], the concentration for half-maximal inhibition (IC50) is 6 nM.
For `N#Cc1cc(Cl)cc(Oc2c(C(F)(F)F)ncn(Cc3cc(-c4cccnc4F)c(=O)[nH]n3)c2=O)c1` [Example 87, 3-chloro-5-((1-((5-(2-fluoropyridin-3-yl)-6-oxo-1,6-dihydropyridazin-3-yl)methyl)-6-oxo-4-(trifluoromethyl)-1,6-dihydropyrimidin-5-yl)oxy)benzonitrile], the IC50 was determined as 18 nM.
For `N#Cc1cc(Cl)cc(Oc2c(C(F)(F)F)ncn(Cc3cc(-c4cnc5ccccc5c4)c(=O)[nH]n3)c2=O)c1` [Example 88, 3-chloro-5-((6-oxo-1-((6-oxo-5-(quinolin-3-yl)-1,6-dihydropyridazin-3-yl)methyl)-4-(trifluoromethyl)-1,6-dihydropyrimidin-5-yl)oxy)benzonitrile] the value was 17 nM; for `N#Cc1cc(Cl)cc(Oc2c(C(F)(F)F)ncn(Cc3cc(-c4ccc(C(N)C(F)(F)F)cc4)c(=O)[nH]n3)c2=O)c1` (centres unmarked) [Example 89, 3-((1-((5-(4-(1-amino-2,2,2-trifluoroethyl)phenyl)-6-oxo-1,6-dihydropyridazin-3-yl)methyl)-6-oxo-4-(trifluoromethyl)-1,6-dihydropyrimidin-5-yl)oxy)-5-chlorobenzonitrile], 18 nM; for `N#Cc1cc(Cl)cc(Oc2c(C(F)(F)F)ncn(Cc3cc(Br)c(=O)[nH]n3)c2=O)c1` [Example 90, 3-((1-((5-bromo-6-oxo-1,6-dihydropyridazin-3-yl)methyl)-6-oxo-4-(trifluoromethyl)-1,6-dihydropyrimidin-5-yl)oxy)-5-chlorobenzonitrile], 6 nM.
For `N#Cc1cc(Cl)cc(Oc2c(C(F)(F)F)ncn(Cc3cc(Cl)c(=O)[nH]n3)c2=O)c1` [Example 91, 3-chloro-5-((1-((5-chloro-6-oxo-1,6-dihydropyridazin-3-yl)methyl)-6-oxo-4-(trifluoromethyl)-1,6-dihydropyrimidin-5-yl)oxy)benzonitrile] the value was 6 nM; for `CN(C)c1cc(Cn2cnc(C(F)(F)F)c(Oc3cc(Cl)cc(C#N)c3)c2=O)n[nH]c1=O` [Example 92, 3-chloro-5-((1-((5-(dimethylamino)-6-oxo-1,6-dihydropyridazin-3-yl)methyl)-6-oxo-4-(trifluoromethyl)-1,6-dihydropyrimidin-5-yl)oxy)benzonitrile], 6 nM.
In the case of `N#Cc1cc(Cl)cc(Oc2c(C(F)(F)F)ncn(Cc3cc(-n4cccn4)c(=O)[nH]n3)c2=O)c1` [Example 93, 3-chloro-5-((6-oxo-1-((6-oxo-5-(1H-pyrazol-1-yl)-1,6-dihydropyridazin-3-yl)methyl)-4-(trifluoromethyl)-1,6-dihydropyrimidin-5-yl)oxy)benzonitrile], the concentration for half-maximal inhibition (IC50) amounted to 11 nM.
`N#Cc1cc(Cl)cc(Oc2c(C(F)(F)F)ncn(Cc3cc(-n4ccnn4)c(=O)[nH]n3)c2=O)c1` [Example 94, 3-chloro-5-((6-oxo-1-((6-oxo-5-(1H-1,2,3-triazol-1-yl)-1,6-dihydropyridazin-3-yl)methyl)-4-(trifluoromethyl)-1,6-dihydropyrimidin-5-yl)oxy)benzonitrile]: the IC50 turned out to be 48 nM.
Regarding `N#Cc1cc(Cl)cc(Oc2c(C(F)(F)F)ncn(Cc3cc(C#N)c(=O)[nH]n3)c2=O)c1` [Example 95, 6-((5-(3-chloro-5-cyanophenoxy)-6-oxo-4-(trifluoromethyl)pyrimidin-1(6H)-yl)methyl)-3-oxo-2,3-dihydropyridazine-4-carbonitrile], the IC50 stood at 8 nM.
